The subject of data set [1] is cardiomyocytes derived from hiPSCs from a LQTS3 patient. The note with it: for LQT-3 shortening (in words): LQT-3 cells.
For data set [2] the test system is unchanged. In words: cells. Conditions: Homo sapiens, Cardiomyocyte; for IC50: read-out: LQT-IC50 (uM)-Shortening.
Data set [3] concerns normal human induced pluripotent stem cell (hiPSC) cardiomyocyte. In words: cells. The note with it: read-out: WT-EC50 (μM) Prolongation.
The test system is the same in data set [4]. The note with it: for WT-Cessation Dose (μM): WT cardiomyocytes, cessation of beating.
A short description of data set [5]: Metabolic stability in human liver microsomes. Format: in vitro ADME. The note with it: for half-life at 50 μM: human, liver microsomes, pH 7.4, liver microsomes + NADPH, species (human), read-out: metabolic stability in liver microsomes T1/2. On the procedure:
(§1) A typical incubation contained rat, mouse, dog or human liver microsomes (0.4-0.5 mg of protein), 100 mM potassium phosphate buffer (pH7.4), 50 μM test compound, an NADPH-generating system consisting of 0.5 mM NADP^+, 0.5 mM glucose-6-phosphate, 1 IU/mL glucose-6-phosphate dehydrogenase, 1 mg/mL diethylenetriaminepentaaceticacid (DETAPAC), and 3 mM MgCl2 in a final incubation volume of 0.25 mL. […] After centrifugation at 3000 rpm for 5 min, the organic fraction was collected, the solvent was removed with a stream of argon and the residue was reconstituted in 125 μL of MeOH and 125 μL H2O, mixed thoroughly, centrifuged at 13,000 rpm for 5 min and analyzed by high performance liquid chromatography. Samples were run on a Hitachi D-7000 HPLC system using a L-7100 analytical pump, L-7400 UV-Visible variable wavelength detector, and L-7600 automatic sample injector. […] Disappearance of the analyte was monitored over time. A plot of the area under the curve for the normalized analyte versus time afforded the half-life values and kapp.
Background: Liver microsomes are a subcellular fraction often used to study metabolism.

In data set [6] the target is Na+ channel currents in LQT3 patient-derived cardiomyocytes (Homo sapiens, UniProt Q14524). In words: Whole cell patch clamp of Na+ currents (INaP, INaL) in hIPSC LQT3 patient-derived cardiomyocytes. Format: cell-based. The procedure:
Patch clamp recordings from hIPSC LQT3 patient-derived cardiomyocytes for Na+ channel currents were recorded in response to computed voltage waveforms that simulated adult ventricular action potentials.
The basis for LQT3 is a mutation in SCN5a that encodes the voltage-gated Na channel responsible for cardiac action potential. The Na current (INa) has peak and late components: the peak component initiates the action potential but as voltage rises, the channel normally inactivates. […] The LQT3 mutation impairs inactivation. The late component is then enlarged, resulting in action potential prolongation. […] Whole cell patch clamp electrophysiology experiments in LQTS3 cardiomyocytes helped determine the functional activity of drug candidates for inhibition of the late sodium current in the cells. Thus, we tested compounds for Peak (INaP) and Late (INaL) components. They were recorded in a “whole-cell” voltage-clamp mode configuration in response to voltage stimulation steps from −80 mV to +40 mV and their IC50 values determined (Table 1).
Background: Patch clamp records ionic current or voltage across a cell membrane.

Data set [7] is described as follows: Chemical stability in PBS buffer at pH 7.4 or 3.0, 37° C. Format: physicochemical. Conditions: pH 7.4, 100 μM in PBS, 1% Ethanol, read-out: Half-Life @ pH 7.4 and 37° C. The procedure: A typical incubation contained 100 μM of the test compound prepared in PBS buffer (pH 7.4 or 3.0, 50 mM) with 1% Ethanol. The test compounds were incubated at 37° C. An aliquot from incubations was taken at various times and injected onto an RP-HPLC system as described above. Disappearance of the analyte was monitored over time.

The nature of data set [8]: Metabolism in human hepatic S9. On the procedure:
as §1
Microsomes contain CYPs and FMO metabolic enzymes. S9 contains soluble enzymes (i.e., aldehyde oxidase, MAO, etc.).

Data set [9] in a line: Solubility (water; 10:30:60% DMSO:PEG400:water vehicle). Format: physicochemical.
Data set [10] deals with hERG potassium channel (IKr) (Homo sapiens, UniProt Q12809). In words: Automated patch clamp, hERG (IKr) expressed in CHO cells. Conditions: for IC50: hERG (IKr) IC50, CHO cells.
The target of data set [11] is Nav1.5 sodium channel, peak current (INaP) (Homo sapiens, UniProt Q14524, form not given). In words: in vitro. Conditions: Peak Na+ (INaP) IC50. On the procedure: (§2) This provided data to investigate the physiology and action of target compounds on individual ion channels. The assay used standardized protocols for culturing and conducting conventional whole cell recording that have been previously developed for both current and voltage-clamp to characterize action potentials using transfected cells. Briefly, the Nav1.5 sodium channel was transfected into HEK293 cells. […] Briefly, cells were plated on 0.1% gelatin-coated 35-mm plastic Petri dishes. […] Data was reported as IC50 values±STD (Table 1).

Data set [12] deals with Nav1.5 sodium channel transfected into HEK293 cells (Homo sapiens, UniProt Q14524). In words: Patch clamp electrophysiology, peak (INaP) and late (INaL) sodium current in transfected cells. The procedure:
as §2

The test system of the next data set is Male BALBc mice. The note with it: mouse, in vivo, ip, 200 mg/kg. The text has this: Male BALBc mice (20-22 g) were used throughout these studies. The animals were maintained in a temperature-controlled room with 12-hr periods of light and darkness and had continuous access to water and animal food. […] Groups contained 2-4 animals.
The mark [13] stands for this setting: read-out: LQT-EC50 (μM) Shortening, LQT-3 cardiomyocytes, AP shortening.
Where [14] appears, read: whole-cell voltage clamp, steps -80 mV to +40 mV, table title says transfected CHO cells, read-out: IC50 for INaL.
Where [15] appears, read: whole-cell voltage clamp, steps -80 mV to +40 mV, table title says transfected CHO cells, read-out: IC50 for INaP.
Setting [16] is: 'No AP' wraps to 'No AP shortening'.

Where two headings read alike, the source gives them in different places.

The values that follow come from patent US11492325B2, “Compounds as inhibitors of sodium channels” (Human BioMolecular Research Institute, priority 2016, dated 2022).

Usually EC50 stands for the concentration at which the effect is half-maximal. In general, IC50 refers to the concentration that inhibits the measured activity by half.

Sequence of Na+ channel currents in LQT3 patient-derived cardiomyocytes (Q14524 whole entry F1473C, form open): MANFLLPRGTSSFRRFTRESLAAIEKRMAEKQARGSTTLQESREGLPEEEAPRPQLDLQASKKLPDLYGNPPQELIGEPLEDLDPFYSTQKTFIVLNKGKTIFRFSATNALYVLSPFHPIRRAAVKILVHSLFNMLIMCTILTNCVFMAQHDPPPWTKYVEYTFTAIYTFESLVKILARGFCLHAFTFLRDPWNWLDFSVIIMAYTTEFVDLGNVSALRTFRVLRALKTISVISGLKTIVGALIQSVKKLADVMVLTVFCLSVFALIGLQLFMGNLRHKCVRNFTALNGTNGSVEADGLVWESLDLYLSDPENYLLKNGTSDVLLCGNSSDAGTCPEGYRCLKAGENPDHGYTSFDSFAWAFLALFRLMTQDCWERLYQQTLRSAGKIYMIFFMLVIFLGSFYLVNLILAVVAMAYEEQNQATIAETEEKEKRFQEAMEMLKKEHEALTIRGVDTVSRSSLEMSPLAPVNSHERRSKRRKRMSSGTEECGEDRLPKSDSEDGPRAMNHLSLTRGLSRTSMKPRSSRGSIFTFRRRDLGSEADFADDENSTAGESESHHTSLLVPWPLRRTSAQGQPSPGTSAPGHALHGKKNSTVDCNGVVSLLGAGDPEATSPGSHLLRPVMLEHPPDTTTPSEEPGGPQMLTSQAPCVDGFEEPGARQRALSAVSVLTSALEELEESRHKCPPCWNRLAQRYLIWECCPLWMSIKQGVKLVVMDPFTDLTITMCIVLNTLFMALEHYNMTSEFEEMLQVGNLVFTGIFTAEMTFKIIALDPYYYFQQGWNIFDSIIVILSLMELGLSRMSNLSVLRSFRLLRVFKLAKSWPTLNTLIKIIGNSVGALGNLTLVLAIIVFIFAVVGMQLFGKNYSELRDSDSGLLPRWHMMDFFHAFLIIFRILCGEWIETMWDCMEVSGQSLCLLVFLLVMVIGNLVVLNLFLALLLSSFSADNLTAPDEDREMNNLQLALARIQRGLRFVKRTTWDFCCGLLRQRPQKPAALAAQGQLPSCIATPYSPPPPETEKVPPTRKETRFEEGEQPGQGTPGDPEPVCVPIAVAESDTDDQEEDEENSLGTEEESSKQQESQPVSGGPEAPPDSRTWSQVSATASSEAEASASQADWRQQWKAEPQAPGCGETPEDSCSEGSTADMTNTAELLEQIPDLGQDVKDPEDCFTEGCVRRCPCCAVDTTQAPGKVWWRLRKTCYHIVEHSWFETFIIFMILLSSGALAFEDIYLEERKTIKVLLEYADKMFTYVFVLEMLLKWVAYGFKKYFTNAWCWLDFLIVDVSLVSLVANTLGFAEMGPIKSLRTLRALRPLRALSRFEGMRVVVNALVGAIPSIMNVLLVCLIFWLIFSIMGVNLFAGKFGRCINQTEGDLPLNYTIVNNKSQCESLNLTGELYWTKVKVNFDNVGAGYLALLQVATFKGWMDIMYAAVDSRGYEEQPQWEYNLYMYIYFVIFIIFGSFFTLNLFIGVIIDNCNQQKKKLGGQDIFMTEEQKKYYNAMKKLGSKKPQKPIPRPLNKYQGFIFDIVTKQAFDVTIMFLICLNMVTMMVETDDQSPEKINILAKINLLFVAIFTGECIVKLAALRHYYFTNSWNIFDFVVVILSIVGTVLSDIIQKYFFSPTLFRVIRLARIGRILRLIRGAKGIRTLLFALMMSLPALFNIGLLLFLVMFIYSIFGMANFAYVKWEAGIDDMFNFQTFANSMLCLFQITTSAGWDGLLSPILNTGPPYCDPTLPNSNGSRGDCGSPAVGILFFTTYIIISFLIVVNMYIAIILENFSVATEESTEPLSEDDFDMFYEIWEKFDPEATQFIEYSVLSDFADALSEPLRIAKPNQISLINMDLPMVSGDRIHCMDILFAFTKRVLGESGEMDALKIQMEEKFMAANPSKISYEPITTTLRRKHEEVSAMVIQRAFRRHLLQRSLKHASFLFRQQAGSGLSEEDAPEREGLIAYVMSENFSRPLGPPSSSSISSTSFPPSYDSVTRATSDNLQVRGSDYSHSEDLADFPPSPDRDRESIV
Sequence of hERG potassium channel (IKr) (Q12809 whole entry): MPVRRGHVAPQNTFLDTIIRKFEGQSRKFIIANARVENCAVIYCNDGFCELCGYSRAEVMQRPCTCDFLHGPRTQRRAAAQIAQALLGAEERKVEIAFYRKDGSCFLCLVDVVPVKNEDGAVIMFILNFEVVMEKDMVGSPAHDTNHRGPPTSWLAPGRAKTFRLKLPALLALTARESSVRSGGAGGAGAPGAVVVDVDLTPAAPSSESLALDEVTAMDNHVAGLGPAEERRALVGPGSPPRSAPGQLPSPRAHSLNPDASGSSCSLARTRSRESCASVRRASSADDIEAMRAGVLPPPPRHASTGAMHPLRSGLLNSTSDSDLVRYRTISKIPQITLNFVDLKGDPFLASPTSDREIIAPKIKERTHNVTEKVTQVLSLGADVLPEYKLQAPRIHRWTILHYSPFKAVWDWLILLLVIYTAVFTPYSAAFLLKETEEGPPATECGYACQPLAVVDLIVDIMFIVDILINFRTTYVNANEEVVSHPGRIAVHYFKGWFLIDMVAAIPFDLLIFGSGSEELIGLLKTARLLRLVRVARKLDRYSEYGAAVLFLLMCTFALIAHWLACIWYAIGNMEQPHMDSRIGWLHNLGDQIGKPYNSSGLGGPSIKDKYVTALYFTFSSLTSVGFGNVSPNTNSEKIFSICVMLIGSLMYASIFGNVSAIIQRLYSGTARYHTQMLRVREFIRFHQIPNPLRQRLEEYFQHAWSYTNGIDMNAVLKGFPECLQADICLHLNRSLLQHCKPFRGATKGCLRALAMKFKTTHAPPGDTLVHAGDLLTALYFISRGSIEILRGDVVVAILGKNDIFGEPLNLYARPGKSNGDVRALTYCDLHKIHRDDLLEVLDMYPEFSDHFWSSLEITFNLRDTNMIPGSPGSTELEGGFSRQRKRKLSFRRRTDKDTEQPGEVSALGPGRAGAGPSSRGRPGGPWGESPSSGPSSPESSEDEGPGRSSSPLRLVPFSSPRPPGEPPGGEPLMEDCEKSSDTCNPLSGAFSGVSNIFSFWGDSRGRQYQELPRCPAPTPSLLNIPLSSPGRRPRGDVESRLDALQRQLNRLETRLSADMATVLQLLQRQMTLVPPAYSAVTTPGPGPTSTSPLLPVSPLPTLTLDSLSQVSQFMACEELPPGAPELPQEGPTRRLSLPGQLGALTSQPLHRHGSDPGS

As for `NC(COc1ccccc1C(F)(F)F)c1ccc2ccccc2c1` (stereo not drawn) [Compound 134], in data set [1] (LQT-3 cardiomyocytes), the “LQT-Fold Shortening” value is 1.515. For the same compound, the “LQT-Cessation Dose (μM)” value in [1] (LQT-3 cardiomyocytes, cessation of beating) is recorded as “No cessation of beating”. Besides, the “LQT-3 shortening (in words)” value in data set [1] is given as “highly potent”. In data set [1] (at the concentrations examined, cells not specified), the “cessation of beating (in words)” value is listed as “did not induce cessation of beating”. Moreover, the EC50 in data set [2] (setting [13]) is 1.79 µM; in data set [3], 24.4 µM. In data set [4] (wild type cells), the “prolongation effects in wild type cells” value is on record as “some prolongation effects”.
As to `Cc1cccnc1OCC(N)c1ccccc1` (stereo not drawn) [Compound 94, 2-((3-methylpyridin-2-yl)oxy)-1-phenylethan-1-amine], the EC50 in [2] (read-out: LQT-EC50 (μM) Shortening, pyridyl derivatives) came to 12.8 µM. For the same compound, the EC50 in data set [3] is 18.5 µM. In [4] (normal hiPSC cardiomyocytes), the “Cessation of Beating” value is “None” and the “WT-EAD Dose” value amounted to 133 µM. The “WT-Cessation Dose” value in data set [4] (pyridyl derivatives) is given as “No cessation of beatimg”.
For the compound `Cc1ccccc1OCC(N)c1ccccc1` (stereo not drawn) [Compound 25, 1-phenyl-2-(o-tolyloxy)ethanamine], the half-life at 50 μM in data set [5] was above 0.0417 days. In addition, the IC50 is 1.74 µM in [6] (LQT3 patient-derived cardiomyocytes, read-out: NaI channel Late (INaL) IC50); 1.7 µM in [6] (setting [14]); 102 µM in data set [6] (setting [15]). Moreover, the half-life at 100 μM in [7] is above 30 days. The “metabolism in human liver S-9 judged by HPLC” value in data set [8] is recorded as “detectably metabolized”. In addition, in data set [9], the “solubility (in words)” value is on record as “good solubility”.
As for `Cl.NC(COc1cc(C(F)(F)F)cc(C(F)(F)F)c1)c1ccccc1` (stereo not drawn) [Compound 78, 2-(3,5-bis(trifluoromethyl)phenoxy)-1-phenylethan-1-amine], the half-life at 50 μM in data set [5] is above 0.0417 days. Also, in data set [1] (setting [16]), the “LQT-Fold Shortening” value was 1.208 and the “LQT-Shortening Dose” value is 22 µM. Besides, in data set [1] (LQT3 cardiomyocytes), the “LQT-Cessation Dose” value was determined as 66 µM and the “LQT-Fold Shortening” value is given as 1.208. The “LQT-Cess. Dose” value in [1] (deuterated vs non-deuterated) is 66 µM. The compound also displayed an IC50 in data set [10] (Example 2) of 7.2 µM. Moreover, in data set [10] (ratio, Example 2), the DKr/NaL was 7.0 and the DNaP/Kr was determined as 2.77. For the same compound, half-maximal inhibition in data set [11] (IC50) required 20 µM. Moreover, the DNap/NaL in data set [12] (ratio peak IC50/late IC50) is recorded as 19.4. The DNap/NaL in data set [12] (ratio peak/late IC50, Example 2) is recorded as 19.4. Moreover, in data set [7], the half-life at 100 μM was above 30 days. In [2] (read-out: LQT-EC50 (μM)-Shortening), the EC50 was 23.1 µM. For the same compound, the IC50 in [2] came to 23.1 µM. The “solubility (in words)” value in data set [9] is reported as “good solubility”. The “WT-Prolong. Dose” value in data set [4] ('No AP' wraps to 'No AP Prolong.') is on record as “No AP”. Besides, the “WT-Fold Prolongation” value in data set [4] (APD, normal hiPSC cardiomyocytes) was “None”. Besides, in [4] (deuterated vs non-deuterated), the “WT-Cess. Dose” value amounted to 133 µM. In [4] (deuterated vs non-deuterated, 'No AP' wraps to 'No AP prolongation'), the “WT-EC50 (μM)-Prolong.” value was “No AP”. In addition, in data set [4] (normal hiPSC cardiomyocytes), the “Cessation of Beating” value was found to be 133 µM and the “WT-Prolongation Dose” value is reported as “None”.
Take `COCCNC(COc1cccc(C)c1C)c1ccccc1` (racemic) [Compound 36, 2-(2,3-dimethylphenoxy)-N-methoxy-ethyl-1-phenylethanamine]: the “metabolism in human liver microsomes judged by HPLC” value in [5] is recorded as “metabolized”. Besides, the IC50 is 0.38 µM in [6] (setting [14]); 51.8 µM in data set [6] (setting [15]); 27.6 µM in data set [10]; 27.6 µM in data set [10] (Example 2); 25.8 µM in data set [11]; 0.747 µM in data set [12]. Further, the IC50 in data set [2] was found to be 5.73 µM. In addition, in data set [1] (LQT3 cardiomyocytes), the “LQT-Cessation Dose” value was found to be 200 µM. The “LQT-Fold Shortening” value in [1] (LQT3 cardiomyocytes) is given as 1.508. Besides, the DKr/NaL in data set [10] (ratio hERG IC50/late Na IC50) worked out at 36.9; in data set [10] (ratio, Example 2) it was 36.9. The DNaP/Kr in [10] (ratio peak Na IC50/hERG IC50) came to 0.9; in data set [10] (ratio, Example 2), 0.93. The “behavioral/toxic effects at 200 mg/kg” value in the data set on Male BALBc mice is “slight lethargy”. The “metabolism in human liver S-9 judged by HPLC” value in [8] is given as “detectably metabolized”. Also, in [9], the “solubility (in words)” value was “good solubility”. Moreover, in data set [4] (normal hiPSC cardiomyocytes), the “Cessation of Beating” value was “None”.
In the case of `COCCNC(COc1cccnc1)c1ccccc1` (stereo not drawn) [Compound 121], in [1] (LQT-3 cardiomyocytes), the “LQT-Fold Shortening” value stood at 1.144. Besides, the “LQT-3 shortening (in words)” value in [1] is given as “moderate shortening”. Moreover, the EC50 is 2.58 µM in data set [2] (setting [13]) and 25.4 µM in data set [3]. Further, in data set [4], the “WT-Cessation Dose (μM)” value is “No cessation of beating”.
Regarding `Cc1cc(C)c(OCC(N)c2ccccc2)cn1` (stereo not drawn) [Compound 120], in data set [1] (LQT-3 cardiomyocytes), the “LQT-Fold Shortening” value is listed as “Does Not Shorten” and the “LQT-Shortening Dose (μM)” value is on record as “Does Not Shorten”. The “LQT-EC50 (μM) Shortening” value in data set [1] (LQT-3 cardiomyocytes, AP shortening) is listed as “Does Not Shorten”. The EC50 in [3] came out at 7.33 µM. In data set [4], the “WT-Cessation Dose (μM)” value is listed as “No cessation of beating”.
